Earlier results, collected in US20100167989A1, “ISOPROPOXYPHENYLMETHYL INHIBITORS OF SGLT2” (AUSPEX PHARMACEUTICALS, INC., priority 2008, published 2010).

Tests used:
rats = settings: orally administered
mice = settings: orally administered

## CCOC(=O)OC[C@H]1O[C@@H](Oc2nn(C(C)C)c(C)c2Cc2ccc(OC(C)C)cc2)[C@H](O)[C@@H](O)[C@@H]1O [remogliflozin etabonate, 4-[(4-isopropoxyphenyl)-methyl]-1-isopropyl-5-methyl-1H-pyrazol-3-yl-D-glucopyranoside]
rats
  urinary glucose excretion: increased urinary glucose excretion in a dose-dependent manner
mice
  urinary glucose excretion: increased urinary glucose excretion in a dose-dependent manner
